Measurements as given in ChEMBL document CHEMBL4014311, “Discovery of a Hepatitis C Virus NS5B Replicase Palm Site Allosteric Inhibitor (BMS-929075) Advanced to Phase 1 Clinical Studies” (J Med Chem, 2017).
Active and inactive are the calls of the source. The rule behind the calls is not given here.

Assays:
[1] = Inhibition of HCV genotype 1b NS5B replicase C316N mutant infected in human HuH7 cells assessed as reduction of viral replication after 3 days by luciferase reporter assay; assay type: cell-based, Hepatitis C virus subtype 1b; conditions: Hepatitis C virus, Huh-7, 72 h
Hepatitis C virus [2] = experiment: Antiviral activity against HCV genotype 1b infected in human HuH7 cells after 3 days by luciferase reporter assay; assay type: functional, cell-based, Hepacivirus hominis
Hepatitis C virus [3] = experiment: Antiviral activity against HCV genotype 1a infected in human HuH7 cells after 3 days by luciferase reporter assay; assay type: functional, cell-based, Hepacivirus hominis, subtype 1a
[4] = Metabolic stability in human liver microsomes assessed as parent compound remaining after 10 mins; assay type: ADME, microsome; conditions: read-out: Stability
[5] = Metabolic stability in rat liver microsomes assessed as parent compound remaining after 10 mins; assay type: ADME, microsome; conditions: read-out: Stability
Cytochrome P450 2C8 = biological target: T1, Cytochrome P450 2C8 (Homo sapiens, UniProt P10632); experiment: Inhibition of microsomal CYP2C8 (unknown origin); assay type: ADME
T1 sequence (P10632 whole entry): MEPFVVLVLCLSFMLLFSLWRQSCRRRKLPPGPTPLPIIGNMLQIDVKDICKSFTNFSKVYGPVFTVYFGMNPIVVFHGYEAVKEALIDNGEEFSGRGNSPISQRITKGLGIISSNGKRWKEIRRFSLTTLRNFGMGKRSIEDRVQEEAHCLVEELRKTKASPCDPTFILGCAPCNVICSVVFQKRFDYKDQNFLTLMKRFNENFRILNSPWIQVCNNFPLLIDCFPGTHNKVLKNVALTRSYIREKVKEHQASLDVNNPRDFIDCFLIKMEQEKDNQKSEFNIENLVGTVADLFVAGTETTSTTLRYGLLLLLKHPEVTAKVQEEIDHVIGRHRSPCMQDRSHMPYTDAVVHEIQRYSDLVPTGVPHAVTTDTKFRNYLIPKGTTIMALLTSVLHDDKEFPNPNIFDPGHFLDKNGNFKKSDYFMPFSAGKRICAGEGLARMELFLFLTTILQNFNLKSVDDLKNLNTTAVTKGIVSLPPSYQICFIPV

Cytochrome P450 3A4 = Cytochrome P450 3A4 (Homo sapiens, UniProt P08684); experiment: Inhibition of microsomal CYP3A4 (unknown origin); assay type: ADME
Chain of Cytochrome P450 3A4 (P08684 whole entry): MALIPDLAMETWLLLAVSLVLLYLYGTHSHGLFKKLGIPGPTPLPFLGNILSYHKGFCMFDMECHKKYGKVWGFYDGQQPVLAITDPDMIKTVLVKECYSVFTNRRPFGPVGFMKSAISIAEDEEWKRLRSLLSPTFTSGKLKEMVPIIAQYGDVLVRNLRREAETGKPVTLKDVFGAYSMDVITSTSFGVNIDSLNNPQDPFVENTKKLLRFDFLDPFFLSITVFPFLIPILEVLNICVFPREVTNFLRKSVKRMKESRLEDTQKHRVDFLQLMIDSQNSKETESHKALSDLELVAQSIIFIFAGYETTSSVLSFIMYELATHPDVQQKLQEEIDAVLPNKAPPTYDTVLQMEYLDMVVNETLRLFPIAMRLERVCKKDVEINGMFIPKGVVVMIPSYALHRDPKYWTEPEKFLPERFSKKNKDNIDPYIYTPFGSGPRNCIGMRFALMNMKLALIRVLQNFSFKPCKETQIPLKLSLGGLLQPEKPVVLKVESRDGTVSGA

[6] = Inhibition of HCV genotype 1b NS5B replicase expressed in Escherichia coli BL21(DE3) using polyA/biotinylated oligo(dT12) as template/primer in presence of [3H]UTP after 60 mins by SPA assay; set-up: species or system Hepatitis C virus subtype 1b
[7] = Half life in rat liver microsomes; assay type: ADME, microsome
[8] = Half life in monkey liver microsomes; assay type: ADME, Macaca mulatta, microsome; conditions: rhesus monkey
[9] = Cytotoxicity against human HuH7 cells after 3 days by CellTiter-Blue assay; assay type: cell-based, Huh-7
[10] = Half life in human liver microsomes; assay type: ADME, microsome
Hepatitis C virus [11] = experiment: Antiviral activity against HCV genotype 1b infected in human HuH7 cells at >= 10 times antiviral EC50 after 3 days by luciferase reporter assay; assay type: functional, cell-based; conditions: Hepacivirus hominis
Hepatitis C virus [12] = experiment: Antiviral activity against HCV genotype 1b infected in human HuH7 cells co-treated with daclatasvir after 3 days by luciferase reporter assay; assay type: functional, cell-based; conditions: Hepacivirus hominis
[13] = Hepatitis C virus, genotype 1b, Huh-7, 72 h, read-out: EC50
[14] = Hepatitis C virus, subtype 1a, Huh-7, 72 h, read-out: EC50

SMILES	EC50 [1] [nM]	EC50 (Hepatitis C virus [2]; [13]) [nM]	EC50 (Hepatitis C virus [3]; [14]) [nM]	IC50 [6] [nM]	also measured
CNC(=O)c1c(-c2ccc(F)cc2)oc2ccc(-c3cc(C(=O)NC4(c5cccnc5)CC4)ccc3C)cc12	193	2.2	17		remaining at 10 min [4]: 0.7%; remaining at 10 min [5]: 0.6%; IC50 (Cytochrome P450 2C8): 350 nM; IC50 (Cytochrome P450 3A4): 63 nM
CNC(=O)c1c(-c2ccc(F)cc2)oc2ccc(-c3cc(C(=O)NC4(c5cccnn5)CC4)ccc3C)cc12	139	2.9	17		
CNC(=O)c1c(-c2ccc(F)cc2)oc2ccc(-c3cc(C(=O)NC4(c5ccccc5)CC4)ccc3OC)cc12	32	1.8	7.9		
CNC(=O)c1c(-c2ccc(F)cc2)oc2ccc(-c3cccc(C(=O)NC(C)(C)C)c3)cc12		18	240	41	
CNC(=O)c1c(-c2ccc(F)cc2)oc2ccc(-c3cccc(C(=O)N(C)C(C)(C)C)c3)cc12		76	1400	120	
CNC(=O)c1c(-c2ccc(F)cc2)oc2ccc(-c3cc(C(=O)NC4(c5ccncc5)CC4)ccc3C)cc12	63	0.83	8.3		remaining at 10 min [4]: 11%; remaining at 10 min [5]: 11%; IC50 (Cytochrome P450 2C8): 26 nM; IC50 (Cytochrome P450 3A4): 73 nM
CNC(=O)c1c(-c2ccc(F)cc2)oc2ccc(-c3ccc(C(=O)O)cc3)cc12		4500	> 20000	650	
CNC(=O)c1c(-c2ccc(F)cc2)oc2ccc(-c3cccc(C(=O)NC4(c5ccccc5)CC4)c3)cc12		3.6	36	5.9	
O=C(Nc1c(OCc2ccc(Cl)cc2)cccc1C(=O)O)c1ccccc1				8400	EC50 (Hepatitis C virus [2]): Not Active; EC50 (Hepatitis C virus [3]): Not Active
CNC(=O)c1c(-c2ccc(F)cc2)oc2ccc(-c3cccc(C(N)=O)c3)cc12		> 3700		5700	
CNC(=O)c1c(-c2ccc(F)cc2)oc2ccc(-c3cc(C(=O)NC4(c5nc(C)no5)CC4)ccc3C)cc12	46	0.81	1.2		half-life [7]: 10 min; half-life [8]: 25 min
CNC(=O)c1c(-c2ccc(F)cc2)oc2ccc(-c3cccc(C(=O)OC)c3)cc12				> 50000	
CNC(=O)c1c(-c2ccc(F)cc2)oc2ccc(-c3ccc(C(=O)O)s3)cc12				360	
CNC(=O)c1c(-c2ccc(F)cc2)oc2ccc(-c3ccccc3C(=O)O)cc12				> 50000	
CNC(=O)c1c(-c2ccc(F)cc2)oc2ccc(-c3cccc(C(=O)O)c3)cc12		12000	> 20000	1100	
CCNC(=O)c1cccc(-c2ccc3oc(-c4ccc(F)cc4)c(C(=O)NC)c3c2)c1		330	1000	780	
CNC(=O)c1c(-c2ccc(F)cc2)oc2ccc(-c3cccc(C(=O)NC(C)c4ccccc4)c3)cc12 (configuration not stated)		54	600	26	
CNC(=O)c1c(-c2ccc(F)cc2)oc2ccc(-c3ccc(C(=O)NC(C)(C)C)cc3)cc12		980		3600	
CNC(=O)c1c(-c2ccc(F)cc2)oc2ccc(-c3cc(C(=O)NC4(c5ccccc5)CC4)ccc3F)cc12	150	3.6	16		
CNC(=O)c1c(-c2ccc(F)cc2)oc2ccc(-c3cc(C(=O)NC4(c5ccccc5)CC4)ccc3C)cc12	35	1.3	2.1		CC50 at 72 h [9]: > 25000 nM; remaining at 10 min [4]: 68%; remaining at 10 min [5]: 39%; half-life [10]: 11 min; IC50 (Cytochrome P450 2C8): 1500 nM; IC50 (Cytochrome P450 3A4): 2100 nM
CNC(=O)c1c(-c2ccc(F)cc2)oc2ccc(-c3cc(C(=O)NC4(c5ccncn5)CC4)ccc3C)cc12	109	1.9	13		
CNC(=O)c1c(-c2ccc(F)cc2)oc2ccc(-c3cc(C(=O)NC4(c5cnccn5)CC4)ccc3C)cc12	308	2.6	15		
CNC(=O)c1c(-c2ccc(F)cc2)oc2ccc(OC(C)C)cc12		14000	> 11000	21000	
CNC(=O)c1c(-c2ccc(F)cc2)oc2ccc(-c3cccc(C(=O)NCc4ccccc4)c3)cc12		67	1800	91	
CNC(=O)c1c(-c2ccc(F)cc2)oc2ccc(-c3cccc(C(=O)NC(C)C)c3)cc12		98	630	190	
CNC(=O)c1c(-c2ccc(F)cc2)oc2ccc(-c3cccc(CO)c3)cc12				> 50000	
CNC(=O)c1c(-c2ccc(F)cc2)oc2ccc(-c3cc(C(=O)NC4(c5ccccc5)CC4)ccc3Cl)cc12	63	2.5	6.2		
C=C[C@@H]1C[C@]1(NC(=O)[C@@H]1C[C@@H](Oc2ncc(OC)c3ccc(Cl)cc23)CN1C(=O)[C@@H](NC(=O)OC(C)(C)C)C(C)(C)C)C(=O)NS(=O)(=O)C1CC1					Activity (Hepatitis C virus [11]): Active; Activity (Hepatitis C virus [12]): Active
CNC(=O)c1c(-c2ccc(F)cc2)oc2ccc(-c3cccc(C(=O)NC(C)(C)c4ccccc4)c3)cc12		10	160	8	
